Reference: US20200377863A1, “MODEL SYSTEM OF LIVER FIBROSIS AND METHOD OF MAKING AND USING THE SAME” (Wake Forest University Health Sciences, priority 2017, published 2020)

Assays:
[1] = system: implanted liver organoids; assay: Effect of CCl4 treatment on liver organoids implanted on mouse liver; type: in vivo, nude mice; settings: 4 μl/g CCl4 in olive oil (1:1), bi-weekly subcutaneous injections
Procedure: FIG. 3. The effect of CCl4 treatment on implanted liver organoids. Liver organoids were inserted on top of mouse livers via a small hole carved with a 8 mm biopsy punch and immobilized with fibrin glue. Some of the mice were treated with 4 μl/g CCl4, via bi-weekly subcutaneous injections. Liver organoids were harvested after 1 and 3 weeks and immune-stained for human hepatocytes (Hep-1) and proliferating cells (PCNA). Implant margins are drawn.
Yet, the in vitro culture conditions lack multiple factors present in vivo including components of the blood and immune cells, to mention a few. Accordingly, we implanted organoids on top the liver of nude mice by creating a small hole with a biopsy punch and immobilized them with fibrin glue. […] In parallel, we treated some on the implanted mice with […] of CCl4 in olive oil (1:1), via bi-weekly subcutaneous injections. […] Neovascularization was also observed within the organoids, probably due to CCl4-induced injury of the host liver.

EZH2 [2] = target: T1, EZH2 (Homo sapiens, UniProt Q15910); assay: Western blot and densitometry of EZH2 activity marker H3K27me3 in fibroblasts treated with GSK-126; type: cell-based
T1 construct: endogenous in cells; host or cells: myofibroblasts transitioned from mesenchymal stem cells (called tumor-associated fibroblasts, TAF)
T1 sequence (Q15910 whole entry, species assumed): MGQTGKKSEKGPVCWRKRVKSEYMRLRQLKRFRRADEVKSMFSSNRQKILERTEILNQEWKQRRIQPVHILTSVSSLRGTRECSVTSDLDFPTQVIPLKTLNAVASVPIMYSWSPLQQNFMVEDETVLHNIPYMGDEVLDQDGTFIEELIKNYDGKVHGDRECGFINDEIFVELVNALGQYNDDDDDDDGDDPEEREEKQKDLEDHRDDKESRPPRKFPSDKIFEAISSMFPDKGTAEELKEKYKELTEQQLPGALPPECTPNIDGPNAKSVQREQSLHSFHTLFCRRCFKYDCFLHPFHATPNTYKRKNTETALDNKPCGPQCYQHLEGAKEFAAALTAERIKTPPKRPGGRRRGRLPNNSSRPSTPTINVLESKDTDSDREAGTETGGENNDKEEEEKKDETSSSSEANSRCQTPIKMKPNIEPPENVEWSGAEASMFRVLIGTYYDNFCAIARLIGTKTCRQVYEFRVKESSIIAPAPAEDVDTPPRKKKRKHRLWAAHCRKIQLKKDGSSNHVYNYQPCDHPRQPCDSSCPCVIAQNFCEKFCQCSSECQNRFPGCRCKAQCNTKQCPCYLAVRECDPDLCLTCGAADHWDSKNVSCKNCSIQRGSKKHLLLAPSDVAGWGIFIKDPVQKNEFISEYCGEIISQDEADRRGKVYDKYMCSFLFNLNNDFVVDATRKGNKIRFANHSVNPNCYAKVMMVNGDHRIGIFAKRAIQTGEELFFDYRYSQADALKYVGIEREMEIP
T1 sequence (Q15022 whole entry partner, species assumed): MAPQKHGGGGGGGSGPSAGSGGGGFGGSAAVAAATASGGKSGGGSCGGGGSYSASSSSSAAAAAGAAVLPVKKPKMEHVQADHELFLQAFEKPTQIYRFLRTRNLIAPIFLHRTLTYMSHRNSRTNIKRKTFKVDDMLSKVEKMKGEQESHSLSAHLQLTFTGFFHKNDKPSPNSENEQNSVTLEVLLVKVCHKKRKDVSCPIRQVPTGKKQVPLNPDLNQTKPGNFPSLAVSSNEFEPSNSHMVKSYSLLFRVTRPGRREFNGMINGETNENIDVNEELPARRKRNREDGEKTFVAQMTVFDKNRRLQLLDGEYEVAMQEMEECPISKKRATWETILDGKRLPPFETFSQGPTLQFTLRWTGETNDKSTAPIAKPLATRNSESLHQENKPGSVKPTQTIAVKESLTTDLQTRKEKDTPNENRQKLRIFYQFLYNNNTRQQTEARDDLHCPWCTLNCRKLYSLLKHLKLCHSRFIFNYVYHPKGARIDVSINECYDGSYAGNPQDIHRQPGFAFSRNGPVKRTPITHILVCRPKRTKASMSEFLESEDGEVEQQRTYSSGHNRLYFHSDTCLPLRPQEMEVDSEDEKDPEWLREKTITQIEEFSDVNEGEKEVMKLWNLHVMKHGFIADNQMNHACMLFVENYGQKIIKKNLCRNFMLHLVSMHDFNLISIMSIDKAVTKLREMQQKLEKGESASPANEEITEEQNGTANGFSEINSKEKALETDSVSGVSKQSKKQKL
T1 sequence (O75530 whole entry partner, species assumed): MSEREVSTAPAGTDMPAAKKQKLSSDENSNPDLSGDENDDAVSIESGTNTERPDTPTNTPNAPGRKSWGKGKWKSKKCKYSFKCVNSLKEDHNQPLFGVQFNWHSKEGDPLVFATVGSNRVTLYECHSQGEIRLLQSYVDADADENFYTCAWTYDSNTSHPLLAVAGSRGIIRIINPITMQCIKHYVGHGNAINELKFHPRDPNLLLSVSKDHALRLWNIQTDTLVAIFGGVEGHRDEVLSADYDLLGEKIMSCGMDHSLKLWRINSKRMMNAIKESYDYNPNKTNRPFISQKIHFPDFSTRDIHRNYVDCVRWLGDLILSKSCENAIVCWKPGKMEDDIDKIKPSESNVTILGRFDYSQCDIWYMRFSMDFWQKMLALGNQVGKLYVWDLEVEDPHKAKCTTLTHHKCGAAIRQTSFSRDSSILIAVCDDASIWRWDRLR
Procedure: (§1) FIG. 4A-FIG. 4F. Analysis of LX-2 cells. FIG. 4A: Western blot comparison of αSMA and PRC2 components/markers in Myofibroblasts and LX-2. FIG. 4B: Densitometry analysis of Myofibroblast vs. LX-2 western blot. FIG. 4C: Western blot analysis of αSMA and PRC2 components/markers in LX-2 cells treated with TGFβ for 24 or 48 hours. FIG. 4D: Densitometry analysis of TGFβ treated LX-2. FIG. 4E: Western blot analysis of EZH2 marker (H3K27me3) for EZH2 activity in myofibroblasts transitioned from Mesenchymal Stem Cells treated with GSK-126, a chemical inhibitor of EZH2. DMSO is a vehicle control.

EZH2 [3] = settings: lymphoma and non-small cell lung cancer cell lines in vitro; cited from earlier work
[4] = system: cancer cell lines that have EZH2 activating mutations; settings: cited from earlier work
[5] = system: cells that do not carry activating EZH2 mutations; settings: high doses; cited from earlier work
LX-2 = assay: Western blot of EZH2 activity and PRC2 components in LX-2 cells incubated with TGFβ; type: cell-based; settings: LX-2 cells treated with TGFβ for 24 or 48 hours; FIG. 4C, 4D
Procedure: as §1
In the fibrotic liver tissue, about 90% of myofibroblasts are derived from HSC (Liedtke, C., et al., Experimental liver fibrosis research: update on animal models, legal issues and translational aspects. Fibrogenesis Tissue Repair, 2013. 6(1): p. 19), and EZH2 may be an epigenetic regulator of HSC activation and transition into myofibroblast. It was shown that, like myofibroblasts (MF-10), the HSC cell line (LX-2) expresses EZH2 and the PRC components in vitro (FIG. 4A, FIG. 4B).

## ClC(Cl)(Cl)Cl [CCl4, carbon tetrachloride]
[1]; harvested after 1 week
  Organoid histology after 1 week of CCl4 treatment: lack of nucleated human hepatocytes within the organoids and early signs of fibrosis
[1]; harvested after 3 weeks
  Organoid histology after 3 weeks of CCl4 treatment: higher number of proliferating stromal and endothelial cells

## CC[C@H](C)n1cc(C)c2c(C(=O)NCc3c(C)cc(C)[nH]c3=O)cc(-c3ccc(N4CCNCC4)nc3)cc21 [GSK-126]
EZH2 [2]; myofibroblasts transitioned from Mesenchymal Stem Cells, treated with GSK-126, FIG. 4F
  Densitometry of EZH2 marker (H3K27me3): activity of EZH2: effective decrease in activity of EZH2
EZH2 [2]; tumor-associated fibroblasts (TAF), Western blot, FIG. 4E, 4F
  H2K27me3 after incubation with GSK-126: complete loss of H2K27me3
EZH2 [3]
  Prevention of H3K27me3: effective at preventing H3K27me3
[4]
  Cell death: resulted in cell death
[5]
  Lethality: non-lethal, even at high doses

## TGFβ
LX-2
  EZH2 activity and PRC machinery (Suz12, H3K27me3): induced EZH2 activity and PRC machinery
